In one data set the test system is memory consolidation. The note with it: subcutaneous 0.3 μmol, chick (Gibbs and Summers, 2002); cited from earlier work.
Data set [1] relates to kainic acid-induced seizures. Description: Kainic acid model of acute seizures. In kind it is in vivo, Sprague Dawley rats. The protocol: (§1) All animal experiments were carried out in accordance with the National Institutes of Health guide for the care and use of laboratory animals (NIH publication 8023, revised 1996) and with the approval of the local Animal Use Committee. Unless indicated, all chemicals were obtained from Sigma Chemical Co (St. Louis Mo.). Male, Sprague Dawley rats weighing 50-74 g (young) or 147-309 g (adult) were used in this study. Acute seizures were induced by kainic acid (KA; Ocean Produce Int., Canada), pilocarpine or pentylenetetrazole (PTZ) as previously described (Lian et al 2006). These models were chosen because they initiate seizures by different mechanisms and the seizures have a relatively gradual onset compared to seizures initiated by stimulation. There was no difference in the body weight of the animals receiving the different convulsants. For pilocarpine, kainic acid and PTZ, the mean weights were 219±5 g (range 163-275 g), 215±7 g (range 183-258 g), and 216±13 g (range 147-309 g), respectively. The animals in the drug treatment groups were not different in weight from the animals in the control groups.
(§2) After administration of KA (10 mg/kg, ip), pilocarpine (scopolamine methyl bromide 1 mg/kg, s.c followed 15 min later by 300 mg/kg, ip pilocarpine) or PTZ (50 mg/kg, ip) (Lian et al., 2006), animals were continuously monitored for seizure activity for at least 5 h after KA or pilocarpine and for 30 min after PTZ. Behavioral seizures were scored by an investigator blinded to the treatment. Latency to the first wet dog shake after KA, latency to the first forelimb clonus (after pilocarpine, kainic acid or PTZ) and the score and duration of seizures were measured. When at least 1 hour had passed without any head bobbing (for pilocarpine) or any wet dog shakes (for KA), seizures were considered over. Status epilepticus lasting longer than 4 hours (for KA) or 5 hours (for pilocarpine) were assigned 4 and 5 hours for seizure duration. For animals receiving PTZ, the seizure duration was defined as the period of tonic-clonic seizures. EEG recording in the hippocampus was conducted as previously described (Lian et al., 2004). After anesthesia, a recording electrode was placed in a burr hole centered at 3.0 mm posterior to bregma, 1.8 mm lateral to the midline and then lowered 3.0 mm. A ground screw and wire was placed over the frontal region in another burr hole. This assembly was fixed to the skull with dental cement.
(§3) Each animal was assigned the score of the most severe seizure observed. The behavioral seizures induced by KA or pilocarpine were scored according to an adjusted version of the scale of Racine (Bough et al., 2002): stage 1, wet dog shakes after KA or trembling after pilocarpine; stage 2, head bobbing and stereotypes; stage 3, unilateral forelimb clonus; stage 4, bilateral forelimb clonus; stage 5, rearing and falling; stage 6, jumping and/or running followed by falling. Death within 24 h was assigned stage 7.
(§4) Adult rats received either D-F1,6BP, sodium valproate (VPA, 0.3 g/kg), 2-DG (0.25, 0.5 g/kg) or normal saline (vehicle) intraperitoneally followed 1 h later by one of the convulsants. The dose for VPA was based on experimental evidence that doses from 0.1 to 0.4 g/kg (ip) are effective in animal models (Bough and Eagles, 2001; Manent et al., 2007). Three doses of F1,6BP (0.25, 0.5 and 1 g/kg) were tested with this dosing schedule. Two additional groups were administered F1,6BP (0.5 or 1 g/kg, n=5) after pilocarpine. In this experiment, the F1,6BP was given intraperitoneally at the first behavioral seizure, which was chewing movements of the jaw. Two additional sets of animals were fed the classic ketogenic diet (No. F3666; Bio-Serv, Frenchtown, N.J.). One set of animals was given the diet beginning on postnatal day 22-26 (KD-Yng) and maintained on this diet for 4 weeks. Thus the seizures were tested in this group when the animals had reached approximately the same age (50-54 days) as the majority of the animals tested. […]

The test system of data set [2] is pilocarpine-induced seizures. Description: Pilocarpine model of acute seizures. In kind it is in vivo, Sprague Dawley rats. The procedure: as §1, §2, §3, §4
The subject of data set [3] is PTZ-induced generalized tonic-clonic seizures. Put plainly: PTZ model of acute seizures. In kind it is in vivo, Sprague Dawley rats. The procedure:
as §1, §2
Adult rats received either D-F1,6BP, sodium valproate (VPA, 0.3 g/kg), 2-DG (0.25, 0.5 g/kg) or normal saline (vehicle) intraperitoneally followed 1 h later by one of the convulsants. The dose for VPA was based on experimental evidence that doses from 0.1 to 0.4 g/kg (ip) are effective in animal models (Bough and Eagles, 2001; Manent et al., 2007). Three doses of F1,6BP (0.25, 0.5 and 1 g/kg) were tested with this dosing schedule. Two additional groups were administered F1,6BP (0.5 or 1 g/kg, n=5) after pilocarpine. In this experiment, the F1,6BP was given intraperitoneally at the first behavioral seizure, which was chewing movements of the jaw. Two additional sets of animals were fed the classic ketogenic diet (No. F3666; Bio-Serv, Frenchtown, N.J.). One set of animals was given the diet beginning on postnatal day 22-26 (KD-Yng) and maintained on this diet for 4 weeks. Thus the seizures were tested in this group when the animals had reached approximately the same age (50-54 days) as the majority of the animals tested.
The latency to seizure onset, seizure score and seizure duration were averaged across animals in each group. Comparisons between groups were done with an analysis of variance with Bonferroni post hoc test. Statistical difference was defined as p<0.05.

The mark [4] stands for this setting: 2-DG 0.25 and 0.5 g/kg, n=5 each.
Where [5] appears, read: VPA 0.3 g/kg ip pretreatment, n=9.

As for `O=CC[C@@H](O)[C@H](O)[C@H](O)CO` [2-DG, 2-deoxyglucose, reference compound], the “effect on memory consolidation” value in the data set with memory consolidation is “inhibit memory consolidation”. Besides, in data set [1] (2-DG 0.25 g/kg, n=6), the “appearance of the first wet dog shake” value is “delayed” and the “effect on the other seizure parameters” value is given as “no effect”. Further, in data set [1] (2-DG 0.5 g/kg, n=3), the anticonvulsant activity result was “no additional activity”. The “animals with a stage 3 seizure” value in data set [2] (2-DG 0.25 g/kg, n=6) is “only one animal”. Further, in data set [2] (pretreatment with 2-DG), the seizure duration entry is “decreasing” and the seizure score entry is given as “decreasing”. In data set [3] (setting [4]), the “animals that had seizures” value is “All animals” and the seizure latency result is on record as “not increased”. In addition, the seizure duration entry in data set [3] (2-DG 0.25 g/kg) was “significantly shortened”.

With `CCCC(CCC)C(=O)[O-].[Na+]` [VPA, sodium valproate, reference compound], in data set [1] (VPA 0.3 g/kg ip, n=6), the “appearance of forelimb clonus” value was “but not the appearance of forelimb clonus”, the “appearance of wet dog shakes” value is listed as “significantly delayed”, the duration of seizures entry is recorded as “decreased” and the seizure score was 4.5±0.2. For the same compound, in data set [2] (VPA 0.3 g/kg ip pretreatment), the “animals with forelimb clonus” value is recorded as 6 out of 9. Also, in data set [2] (setting [5]), the animals that died result was “one died”, the mean seizure score result is on record as “significantly reduced” and the seizure duration result is listed as “significantly reduced”. The compound also showed a seizure duration in data set [3] (VPA 0.3 g/kg) of 9 ± 4 s. Moreover, in data set [3] (VPA 0.3 g/kg, n=8), the “animals with no generalized tonic-clonic seizures” value is recorded as “two animals”. In data set [3] (VPA 0.3 g/kg, the six animals with seizures), the seizure latency amounted to 185 ± 27 s.

These data come from US20100197610A1, “FRUCTOSE 1, 6 BISPHOSPHATE - A NOVEL ANTICONVULSANT DRUG” (Baylor College of Medicine, priority 2007, published 2010).
